Experimental data from patent US4281121A, “1,3,4-Thiadiazole-2-carboxylic acid derivatives, process for making the same and fungicidal and nematocidal compositions containing same” (Schering Aktiengesellschaft, priority 1978, dated 1981).

system: Pythium ultimum; assay: Threshold concentration test for use of the compounds against Pythium ultimum (infested soil, garden peas); assay type: in vivo; design: key to root evaluation (1-4): 4: white roots without fungous necrosis; 3: white roots, minor fungous necrosis; 2: brown roots, already more pronounced fungous necrosis; 1: heavy fungous necrosis, roots rotted; conditions: 20 mg/l soil; 3 weeks
Method: Threshold concentration test for use of the compounds against Pythium ultimum
A 20% concentration of certain pulverulent active agents as listed below were mixed in uniform manner into a soil which had been heavily infested by Pythium ultimum. The thus treated soil was then placed into clay dishes of a capacity of 0.5 l earth. Without any intermediate time lapse 20 grain of garden peas (Pisum sativum L. convar. medullare Alef.) of the type "Wunder von Kelvedon" were then seeded into each of the clay dishes. After a cultivation period of three weeks at 20° to 24° C. in a hothouse the number of sound peas was determined and a root evaluation was carried out. The active agents amounts and results appear from the following table.
(§1) The root evaluation was carried out on a scale from 1 to 4 as follows: […]

In the case of `CCCS(=O)(=O)c1nnc(C(=O)NC(C)C)s1` [5-propylsulfonyl-1,3,4-thiadiazole-2-carboxylic acid-isopropylamide], the “root evaluation (1-4)” value is reported as 1.

same assay, conditions: 20 mg/l soil; 20 grains per dish; 3 weeks at 20-24° C.

For `CCCS(=O)(=O)c1nnc(C(=O)NC(C)C)s1` [5-propylsulfonyl-1,3,4-thiadiazole-2-carboxylic acid-isopropylamide], the “number of sound peas” value was 9.

same assay, conditions: 40 mg/l soil; 3 weeks

In the case of `CCCS(=O)(=O)c1nnc(C(=O)NC(C)C)s1` [5-propylsulfonyl-1,3,4-thiadiazole-2-carboxylic acid-isopropylamide], the “root evaluation (1-4)” value is reported as 4.

same assay, conditions: 40 mg/l soil; 20 grains per dish; 3 weeks at 20-24° C.

For `CCCS(=O)(=O)c1nnc(C(=O)NC(C)C)s1` [5-propylsulfonyl-1,3,4-thiadiazole-2-carboxylic acid-isopropylamide], the “number of sound peas” value was 20.

same assay, conditions: 80 mg/l soil; 3 weeks

With `CCCS(=O)(=O)c1nnc(C(=O)NC(C)C)s1` [5-propylsulfonyl-1,3,4-thiadiazole-2-carboxylic acid-isopropylamide] the “root evaluation (1-4)” value was 4.

same assay, conditions: 80 mg/l soil; 20 grains per dish; 3 weeks at 20-24° C.

`CCCS(=O)(=O)c1nnc(C(=O)NC(C)C)s1` [5-propylsulfonyl-1,3,4-thiadiazole-2-carboxylic acid-isopropylamide] was tested, and the “number of sound peas” value was 18.

system: Fusarium avenaceum; assay: Threshold concentration test in case of Fusarium avenaceum (infested soil, garden peas); assay type: in vivo; conditions: 25 mg/l soil; 20 grains per dish; 18 days at 20-24° C.
Method: Threshold concentration test in case of Fusarium avenaceum
A 20% pulverulent active agent of the type further identified in the table below was mixed in uniform manner with a soil which had been heavily infested with Fusarium avenaceum. The thus treated soil was then placed into clay dishes of a capacity of 0.5 l of earth. Each dish was seeded without any intervening time with 20 grains of garden peas (Pisum sativum L. convar. medullare Alef.) of the type "Wunder von Kelvedon". After a cultivation time of 18 days at 20° to 24° C. in a hot house the number of sound peas was determined and a root evaluation was carried out. The active agents employed, the amounts and results appear from the following table.
as §1

First: CC(C)CS(=O)(=O)c1nnc(C#N)s1 [5-isobutylsulfonyl-1,3,4-thiadiazole-2-carbonitrile]
Second: CCC(C)S(=O)(=O)c1nnc(C#N)s1 (stereo not drawn) [5-sec.-butylsulfonyl-1,3,4-thiadiazole-2-carbonitrile]
The “number of sound peas” value of the first is lower: 19 for the first, 20 for the second.

Compared with `CCCS(=O)(=O)c1nnc(C#N)s1` [5-propylsulfonyl-1,3,4-thiadiazole-2-carbonitrile], `CCCS(=O)(=O)c1nnc(C(=O)NC(C)C)s1` [5-propylsulfonyl-1,3,4-thiadiazole-2-carboxylic acid-isopropylamide] is lower in “number of sound peas” value: 18 for the first, 14 for the second.

same assay, conditions: 25 mg/l soil; 18 days

`CC(C)CS(=O)(=O)c1nnc(C#N)s1` [5-isobutylsulfonyl-1,3,4-thiadiazole-2-carbonitrile] and `CCC(C)S(=O)(=O)c1nnc(C#N)s1` (stereo not drawn) [5-sec.-butylsulfonyl-1,3,4-thiadiazole-2-carbonitrile] are the same in “root evaluation (1-4)” value: 4 for the first, 4 for the second.

Compared with `CCCS(=O)(=O)c1nnc(C#N)s1` [5-propylsulfonyl-1,3,4-thiadiazole-2-carbonitrile], `CCCS(=O)(=O)c1nnc(C(=O)NC(C)C)s1` [5-propylsulfonyl-1,3,4-thiadiazole-2-carboxylic acid-isopropylamide] is lower in “root evaluation (1-4)” value: 4 for the first, 2 for the second.

same assay, conditions: 50 mg/l soil; 20 grains per dish; 18 days at 20-24° C.

First: CC(C)CS(=O)(=O)c1nnc(C#N)s1 [5-isobutylsulfonyl-1,3,4-thiadiazole-2-carbonitrile]
Second: CCC(C)S(=O)(=O)c1nnc(C#N)s1 (stereo not drawn) [5-sec.-butylsulfonyl-1,3,4-thiadiazole-2-carbonitrile]
The “number of sound peas” value of the first is higher: 20 for the first, 19 for the second.

Compared with `CCCS(=O)(=O)c1nnc(C#N)s1` [5-propylsulfonyl-1,3,4-thiadiazole-2-carbonitrile], `CCCS(=O)(=O)c1nnc(C(=O)NC(C)C)s1` [5-propylsulfonyl-1,3,4-thiadiazole-2-carboxylic acid-isopropylamide] is lower in “number of sound peas” value: 20 for the first, 16 for the second.

same assay, conditions: 50 mg/l soil; 18 days

`CC(C)CS(=O)(=O)c1nnc(C#N)s1` [5-isobutylsulfonyl-1,3,4-thiadiazole-2-carbonitrile] and `CCC(C)S(=O)(=O)c1nnc(C#N)s1` (stereo not drawn) [5-sec.-butylsulfonyl-1,3,4-thiadiazole-2-carbonitrile] are the same in “root evaluation (1-4)” value: 4 for the first, 4 for the second.

First: CCCS(=O)(=O)c1nnc(C#N)s1 [5-propylsulfonyl-1,3,4-thiadiazole-2-carbonitrile]
Second: CCCS(=O)(=O)c1nnc(C(=O)NC(C)C)s1 [5-propylsulfonyl-1,3,4-thiadiazole-2-carboxylic acid-isopropylamide]
The “root evaluation (1-4)” value of the first is higher: 4 for the first, 3 for the second.

same assay, conditions: 100 mg/l soil; 20 grains per dish; 18 days at 20-24° C.

Going from `CC(C)CS(=O)(=O)c1nnc(C#N)s1` [5-isobutylsulfonyl-1,3,4-thiadiazole-2-carbonitrile] to `CCC(C)S(=O)(=O)c1nnc(C#N)s1` (stereo not drawn) [5-sec.-butylsulfonyl-1,3,4-thiadiazole-2-carbonitrile], the “number of sound peas” value rises from 19 to 20.

Going from `CCCS(=O)(=O)c1nnc(C#N)s1` [5-propylsulfonyl-1,3,4-thiadiazole-2-carbonitrile] to `CCCS(=O)(=O)c1nnc(C(=O)NC(C)C)s1` [5-propylsulfonyl-1,3,4-thiadiazole-2-carboxylic acid-isopropylamide], the “number of sound peas” value falls from 20 to 17.

same assay, conditions: 100 mg/l soil; 18 days

`CC(C)CS(=O)(=O)c1nnc(C#N)s1` [5-isobutylsulfonyl-1,3,4-thiadiazole-2-carbonitrile] and `CCC(C)S(=O)(=O)c1nnc(C#N)s1` (stereo not drawn) [5-sec.-butylsulfonyl-1,3,4-thiadiazole-2-carbonitrile] are the same in “root evaluation (1-4)” value: 4 for the first, 4 for the second.

`CCCS(=O)(=O)c1nnc(C#N)s1` [5-propylsulfonyl-1,3,4-thiadiazole-2-carbonitrile] and `CCCS(=O)(=O)c1nnc(C(=O)NC(C)C)s1` [5-propylsulfonyl-1,3,4-thiadiazole-2-carboxylic acid-isopropylamide] are the same in “root evaluation (1-4)” value: 4 for the first, 4 for the second.

system: Tilletia caries; assay: Treatment of oat seeds infested with Tilletia caries (spore germination); assay type: in vivo; conditions: 10 g active agent per 100 kg

First: CCCS(=O)(=O)c1nnc(C#N)s1 [5-propylsulfonyl-1,3,4-thiadiazole-2-carbonitrile]
Second: CCC(C)S(=O)(=O)c1nnc(C#N)s1 (stereo not drawn) [5-sec.-butylsulfonyl-1,3,4-thiadiazole-2-carbonitrile]
The “% activity” value of the first is higher: 99% for the first, 75% for the second.

`CCCS(=O)(=O)c1nnc(C(=O)NC(C)C)s1` [5-propylsulfonyl-1,3,4-thiadiazole-2-carboxylic acid-isopropylamide] was tested, and the “% activity” value was 98%.

same assay, conditions: 20 g active agent per 100 kg

First: CC(C)CS(=O)(=O)c1nnc(C#N)s1 [5-isobutylsulfonyl-1,3,4-thiadiazole-2-carbonitrile]
Second: CCC(C)S(=O)(=O)c1nnc(C#N)s1 (stereo not drawn) [5-sec.-butylsulfonyl-1,3,4-thiadiazole-2-carbonitrile]
The “% activity” value of the first is higher: 93% for the first, 91% for the second.

First: CC(C)S(=O)(=O)c1nnc(C(=O)NCC2CCCCC2)s1 [5-isopropylsulfonyl-1,3,4-thiadiazole-2-carboxylic acid-cyclohexylmethylamide]
Second: CCCS(=O)(=O)c1nnc(C(=O)NC(C)C)s1 [5-propylsulfonyl-1,3,4-thiadiazole-2-carboxylic acid-isopropylamide]
The “% activity” value of the first is lower: 92% for the first, 99.8% for the second.

First: CCCNC(=O)c1nnc([S+]([O-])CCC)s1 (stereo not drawn) [5-propylsulfinyl-1,3,4-thiadiazole-2-carboxylic acid-propylamide]
Second: CCCS(=O)(=O)c1nnc(C#N)s1 [5-propylsulfonyl-1,3,4-thiadiazole-2-carbonitrile]
The “% activity” value of the first is lower: 99.3% for the first, 100% for the second.

same assay, conditions: 50 g active agent per 100 kg

Going from `CC(C)CS(=O)(=O)c1nnc(C#N)s1` [5-isobutylsulfonyl-1,3,4-thiadiazole-2-carbonitrile] to `CCC(C)S(=O)(=O)c1nnc(C#N)s1` (stereo not drawn) [5-sec.-butylsulfonyl-1,3,4-thiadiazole-2-carbonitrile], the “% activity” value falls from 100% to 98%.

First: CC(C)S(=O)(=O)c1nnc(C(=O)NCC2CCCCC2)s1 [5-isopropylsulfonyl-1,3,4-thiadiazole-2-carboxylic acid-cyclohexylmethylamide]
Second: CCCS(=O)(=O)c1nnc(C(=O)NC(C)C)s1 [5-propylsulfonyl-1,3,4-thiadiazole-2-carboxylic acid-isopropylamide]
The “% activity” value of the first is lower: 97% for the first, 100% for the second.

`CCCNC(=O)c1nnc([S+]([O-])CCC)s1` (stereo not drawn) [5-propylsulfinyl-1,3,4-thiadiazole-2-carboxylic acid-propylamide] and `CCCS(=O)(=O)c1nnc(C#N)s1` [5-propylsulfonyl-1,3,4-thiadiazole-2-carbonitrile] are the same in “% activity” value: 100% for the first, 100% for the second.

system: Piricularia oryzae; assay: not given; assay type: in vivo; conditions: concentration of active agent 0.02 (percentages); 5 days

`CN(CCC(N)CC(=O)NC1C=CC(n2ccc(N)nc2=O)OC1C(=O)O)C(=N)N` (stereo not drawn) [Blasticidin-S, reference compound] was tested, and the “% activity” value was 90%.

same assay, conditions: concentration of active agent 0.1 (percentages); 5 days

Going from `CC(C)CS(=O)(=O)c1nnc(C#N)s1` [5-isobutylsulfonyl-1,3,4-thiadiazole-2-carbonitrile] to `CCC(C)S(=O)(=O)c1nnc(C#N)s1` (stereo not drawn) [5-sec.-butylsulfonyl-1,3,4-thiadiazole-2-carbonitrile], the “% activity” value falls from 100% to 99.5%.

Compared with `CC(C)S(=O)(=O)c1nnc(C(=O)NCC2CCCCC2)s1` [5-isopropylsulfonyl-1,3,4-thiadiazole-2-carboxylic acid-cyclohexylmethylamide], `CCCS(=O)(=O)c1nnc(C(=O)NC(C)C)s1` [5-propylsulfonyl-1,3,4-thiadiazole-2-carboxylic acid-isopropylamide] is lower in “% activity” value: 98% for the first, 90% for the second.

Compared with `CCC[S+]([O-])c1nnc(C(=O)NCC)s1` (stereo not drawn) [5-propylsulfinyl-1,3,4-thiadiazole-2-carboxylic acid-ethylamide], `CCCNC(=O)c1nnc([S+]([O-])CCC)s1` (stereo not drawn) [5-propylsulfinyl-1,3,4-thiadiazole-2-carboxylic acid-propylamide] is higher in “% activity” value: 90% for the first, 93% for the second.

Compared with `CCCS(=O)(=O)c1nnc(C#N)s1` [5-propylsulfonyl-1,3,4-thiadiazole-2-carbonitrile], `CN(CCC(N)CC(=O)NC1C=CC(n2ccc(N)nc2=O)OC1C(=O)O)C(=N)N` (stereo not drawn) [Blasticidin-S, reference compound] is lower in “% activity” value: 99.5% for the first, 97% for the second.

system: Plasmopara viticola; assay: Prophylactic leaf treatment of grapevines in the hothouse against Plasmopara viticola; assay type: in vivo; conditions: concentration of active agent 0.001 (unit not given)
Method: Effects of prophylactic leaf treatment of grapevines in the hothouse against Plasmopara viticola
Young grapevine plants having from 5 to 8 leaves were sprayed dripping wet with the concentrations of active agents stated in the table below. After drying of the spray deposit the leaves were sprayed with an aqueous suspension of sporangia of the fungus (about 20,000 per ml); the spraying was applied to the bottom side of the leaves. The plants were then immediately incubated in a hothouse at a temperature of 22° to 24° C. and at maximum water saturation in the atmosphere. Beginning with the second day the humidity of the air was reduced for 3 to 4 days to normal level (30 to 70% saturation) and was then maintained for another day on the level of full saturation. Subsequently, the percentage portion of the fungus infested surface of each leaf was noted and the average per treatment was calculated in order to determine the fungicidal activity. This was done on the basis of the following formula: [formula]
The active compounds were applied in the form of a 20% concentration spray powder.

In the case of `CC(C)CS(=O)(=O)c1nnc(C#N)s1` [5-isobutylsulfonyl-1,3,4-thiadiazole-2-carbonitrile], the “% activity” value is reported as 79%.

same assay, conditions: concentration of active agent 0.005 (unit not given)

Compared with `CC(C)CS(=O)(=O)c1nnc(C#N)s1` [5-isobutylsulfonyl-1,3,4-thiadiazole-2-carbonitrile], `CC(C)S(=O)(=O)c1nnc(C(=O)NCC2CCCCC2)s1` [5-isopropylsulfonyl-1,3,4-thiadiazole-2-carboxylic acid-cyclohexylmethylamide] is higher in “% activity” value: 87% for the first, 92% for the second.

same assay, conditions: concentration of active agent 0.025 (unit not given)

Compared with `CC(C)CS(=O)(=O)c1nnc(C#N)s1` [5-isobutylsulfonyl-1,3,4-thiadiazole-2-carbonitrile], `CC(C)S(=O)(=O)c1nnc(C(=O)NCC2CCCCC2)s1` [5-isopropylsulfonyl-1,3,4-thiadiazole-2-carboxylic acid-cyclohexylmethylamide] is lower in “% activity” value: 99% for the first, 97% for the second.

system: Venturia inaequalis; assay: Prophylactic leaf treatment of apples in open field test against Venturia inaequalis; assay type: in vivo; conditions: concentration of active agent 0.005 (in gram); 3 weeks

With `N#CC1=C(C#N)C(=O)c2cc3ccccc3cc2C1=O` [2,3-dinitrilo-1,4-anthraquinone, reference compound] the “% activity” value was 86%.

same assay, conditions: concentration of active agent 0.025 (in gram); 3 weeks

For `N#CC1=C(C#N)C(=O)c2cc3ccccc3cc2C1=O` [2,3-dinitrilo-1,4-anthraquinone, reference compound], the “% activity” value was 94%.

system: Helminthosporium gram; assay: not given; conditions: 50 g active agent per 100 kg; about 5 weeks

`CCC[S+]([O-])c1nnc(C(=O)NCC)s1` (stereo not drawn) [5-propylsulfinyl-1,3,4-thiadiazole-2-carboxylic acid-ethylamide] and `CCCNC(=O)c1nnc([S+]([O-])CCC)s1` (stereo not drawn) [5-propylsulfinyl-1,3,4-thiadiazole-2-carboxylic acid-propylamide] are the same in “% activity” value: 94% for the first, 94% for the second.
